Data taken from ChEMBL document CHEMBL1671738, “In vitro pharmacokinetic and pharmacodynamic evaluation of S-013420 against Haemophilus influenzae and Streptococcus pneumoniae” (Antimicrob Agents Chemother, 2010).
Converted amounts (≈) assume the structure as drawn.

Experiments:
[1] = tested on: Streptococcus pneumoniae; assay: Antibacterial activity against erythromycin-susceptible Streptococcus pneumoniae SR26229 clinical isolate by broth microdilution method; assay type: functional
[2] = tested on: Streptococcus pneumoniae; assay: Antibacterial activity against erythromycin-resistant Streptococcus pneumoniae SR26143 clinical isolate expressing mefA gene by broth microdilution method; assay type: functional
[3] = tested on: Streptococcus pneumoniae; assay: Antibacterial activity against erythromycin-resistant Streptococcus pneumoniae SR26132 clinical isolate expressing ermB gene by broth microdilution method; assay type: functional
[4] = tested on: Haemophilus influenzae; assay: AUC (0 to 24 hrs) in Haemophilus influenzae SR24169 clinical isolate in vitro pharmacodynamic model; assay type: ADME, organism-based; set-up: time < 24 hr; details: in vivo
[5] = tested on: Streptococcus pneumoniae; assay: AUC (0 to 24 hrs) in erythromycin-susceptible Streptococcus pneumoniae SR26229 clinical isolate in vitro pharmacodynamic model; assay type: ADME, organism-based; set-up: time < 24 hr; details: in vivo
[6] = tested on: Streptococcus pneumoniae; assay: AUC (0 to 24 hrs) in erythromycin-resistant Streptococcus pneumoniae SR26143 clinical isolate expressing mefA in vitro pharmacodynamic model; assay type: ADME, organism-based; set-up: time < 24 hr; details: in vivo
[7] = tested on: Streptococcus pneumoniae; assay: AUC (0 to 24 hrs) in erythromycin-resistant Streptococcus pneumoniae SR26132 clinical isolate expressing ermB gene in vitro pharmacodynamic model; assay type: ADME, organism-based; set-up: time < 24 hr; details: in vivo
[8] = tested on: Haemophilus influenzae; assay: Cmax in Haemophilus influenzae SR24169 clinical isolate in vitro pharmacodynamic model; assay type: ADME, organism-based; details: in vivo
[9] = tested on: Streptococcus pneumoniae; assay: Cmax in erythromycin-susceptible Streptococcus pneumoniae SR26229 clinical isolate in vitro pharmacodynamic model; assay type: ADME, organism-based; details: in vivo
[10] = tested on: Streptococcus pneumoniae; assay: Cmax in erythromycin-resistant Streptococcus pneumoniae SR26143 clinical isolate expressing mefA gene in vitro pharmacodynamic model; assay type: ADME, organism-based; details: in vivo
[11] = tested on: Streptococcus pneumoniae; assay: Cmax in erythromycin-resistant Streptococcus pneumoniae SR26132 clinical isolate expressing ermB gene in vitro pharmacodynamic model; assay type: ADME, organism-based; details: in vivo
[12] = tested on: Haemophilus influenzae; assay: Half life in Haemophilus influenzae SR24169 clinical isolate in vitro pharmacodynamic model; assay type: ADME, organism-based; details: in vivo
[13] = tested on: Streptococcus pneumoniae; assay: Half life in erythromycin-susceptible Streptococcus pneumoniae SR26229 clinical isolate in vitro pharmacodynamic model; assay type: ADME, organism-based; details: in vivo
[14] = tested on: Streptococcus pneumoniae; assay: Half life in erythromycin-resistant Streptococcus pneumoniae SR26143 clinical isolate expressing mefA gene in vitro pharmacodynamic model; assay type: ADME, organism-based; details: in vivo
[15] = tested on: Streptococcus pneumoniae; assay: Half life in erythromycin-resistant Streptococcus pneumoniae SR26132 clinical isolate expressing ermB gene in vitro pharmacodynamic model; assay type: ADME, organism-based; details: in vivo
[16] = tested on: Haemophilus influenzae; assay: Ratio of AUC (0 to 24 hrs) to MIC in Haemophilus influenzae SR24169 clinical isolate based on area above the killing curve index by half maximum antibacterial activity criteria based in vitro pharmacodynamic model; assay type: functional
[17] = tested on: Haemophilus influenzae; assay: Ratio of AUC (0 to 24 hrs) to MIC in Haemophilus influenzae SR24169 clinical isolate based on area above the killing curve index by maximum antibacterial activity criteria based in vitro pharmacodynamic model; assay type: functional
[18] = tested on: Haemophilus influenzae; assay: Ratio of AUC (0 to 24 hrs) to MIC in Haemophilus influenzae SR24169 clinical isolate based on area above the killing curve index by minimum antibacterial activity criteria based in vitro pharmacodynamic model; assay type: functional
[19] = tested on: Haemophilus influenzae; assay: Ratio of AUC (0 to 24 hrs) to MIC in Haemophilus influenzae SR24169 clinical isolate based on viable cell reduction at 24 hrs index by half maximum antibacterial activity criteria based in vitro pharmacodynamic model; assay type: functional
[20] = tested on: Haemophilus influenzae; assay: Ratio of AUC (0 to 24 hrs) to MIC in Haemophilus influenzae SR24169 clinical isolate based on viable cell reduction at 24 hrs index by maximum antibacterial activity criteria based in vitro pharmacodynamic model; assay type: functional
[21] = tested on: Haemophilus influenzae; assay: Ratio of AUC (0 to 24 hrs) to MIC in Haemophilus influenzae SR24169 clinical isolate based on viable cell reduction at 24 hrs index by minimum antibacterial activity criteria based in vitro pharmacodynamic model; assay type: functional
[22] = tested on: Haemophilus influenzae; assay: Ratio of Cmax to MIC in Haemophilus influenzae SR24169 clinical isolate based on area above the killing curve index by half maximum antibacterial activity criteria based in vitro pharmacodynamic model; assay type: functional
[23] = tested on: Haemophilus influenzae; assay: Ratio of Cmax to MIC in Haemophilus influenzae SR24169 clinical isolate based on area above the killing curve index by maximum antibacterial activity criteria based in vitro pharmacodynamic model; assay type: functional
[24] = tested on: Haemophilus influenzae; assay: Ratio of Cmax to MIC in Haemophilus influenzae SR24169 clinical isolate based on area above the killing curve index by minimum antibacterial activity criteria based in vitro pharmacodynamic model; assay type: functional
[25] = tested on: Haemophilus influenzae; assay: Ratio of Cmax to MIC in Haemophilus influenzae SR24169 clinical isolate based on viable cell reduction at 24 hrs index by maximum antibacterial activity criteria based in vitro pharmacodynamic model; assay type: functional
[26] = tested on: Haemophilus influenzae; assay: Ratio of Cmax to MIC in Haemophilus influenzae SR24169 clinical isolate based on viable cell reduction at 24 hrs index by minimum antibacterial activity criteria based in vitro pharmacodynamic model; assay type: functional
[27] = tested on: Haemophilus influenzae; assay: %TMIC in Haemophilus influenzae SR24169 clinical isolate based on area above the killing curve index by half maximum antibacterial activity criteria based in vitro pharmacodynamic model; assay type: functional
[28] = tested on: Haemophilus influenzae; assay: %TMIC in Haemophilus influenzae SR24169 clinical isolate based on area above the killing curve index by maximum antibacterial activity criteria based in vitro pharmacodynamic model; assay type: functional
[29] = tested on: Haemophilus influenzae; assay: %TMIC in Haemophilus influenzae SR24169 clinical isolate based on area above the killing curve index by minimum antibacterial activity criteria based in vitro pharmacodynamic model; assay type: functional
[30] = tested on: Haemophilus influenzae; assay: %TMIC in Haemophilus influenzae SR24169 clinical isolate based on viable cell reduction at 24 hrs index by maximum antibacterial activity criteria based in vitro pharmacodynamic model; assay type: functional
[31] = tested on: Haemophilus influenzae; assay: %TMIC in Haemophilus influenzae SR24169 clinical isolate based on viable cell reduction at 24 hrs index by minimum antibacterial activity criteria based in vitro pharmacodynamic model; assay type: functional
[32] = tested on: Haemophilus influenzae; assay: Ratio of AUC (0 to 24 hrs) to MIC in Haemophilus influenzae SR24169 clinical isolate by maximal efficacy criteria based in vitro pharmacodynamic model; assay type: functional
[33] = tested on: Streptococcus pneumoniae; assay: Ratio of AUC (0 to 24 hrs) to MIC in erythromycin-susceptible Streptococcus pneumoniae SR26229 clinical isolate by maximal efficacy criteria based in vitro pharmacodynamic model; assay type: functional
[34] = tested on: Streptococcus pneumoniae; assay: Ratio of AUC (0 to 24 hrs) to MIC in erythromycin-resistant Streptococcus pneumoniae SR26143 clinical isolate expressing mefA gene by maximal efficacy criteria based in vitro pharmacodynamic model; assay type: functional
[35] = tested on: Streptococcus pneumoniae; assay: Ratio of AUC (0 to 24 hrs) to MIC in erythromycin-resistant Streptococcus pneumoniae SR26132 clinical isolate expressing ermB gene by maximal efficacy criteria based in vitro pharmacodynamic model; assay type: functional
[36] = tested on: Haemophilus influenzae; assay: Ratio of AUC (0 to 24 hrs) to MIC in Haemophilus influenzae SR24169 clinical isolate by bacteriostatic effect criteria based in vitro pharmacodynamic model; assay type: functional
[37] = tested on: Streptococcus pneumoniae; assay: Ratio of AUC (0 to 24 hrs) to MIC in erythromycin-susceptible Streptococcus pneumoniae SR26229 clinical isolate by bacteriostatic effect criteria based in vitro pharmacodynamic model; assay type: functional
[38] = tested on: Streptococcus pneumoniae; assay: Ratio of AUC (0 to 24 hrs) to MIC in erythromycin-resistant Streptococcus pneumoniae SR26143 clinical isolate expressing mefA gene by bacteriostatic effect criteria based in vitro pharmacodynamic model; assay type: functional
[39] = tested on: Streptococcus pneumoniae; assay: Ratio of AUC (0 to 24 hrs) to MIC in erythromycin-resistant Streptococcus pneumoniae SR26132 clinical isolate expressing ermB gene by bacteriostatic effect criteria based in vitro pharmacodynamic model; assay type: functional
[40] = tested on: Streptococcus pneumoniae; assay: Half maximum antibacterial activity against erythromycin-susceptible Streptococcus pneumoniae SR26229 clinical isolate based on area above the killing curve index in vitro pharmacodynamic model; assay type: ADME, organism-based; details: in vivo
[41] = tested on: Streptococcus pneumoniae; assay: Maximum antibacterial activity against erythromycin-susceptible Streptococcus pneumoniae SR26229 clinical isolate based on area above the killing curve index in vitro pharmacodynamic model; assay type: ADME, organism-based; details: in vivo
[42] = tested on: Streptococcus pneumoniae; assay: Minimum antibacterial activity against erythromycin-susceptible Streptococcus pneumoniae SR26229 clinical isolate based on area above the killing curve index in vitro pharmacodynamic model; assay type: ADME, organism-based; details: in vivo
[43] = tested on: Streptococcus pneumoniae; assay: Half maximum antibacterial activity against erythromycin-susceptible Streptococcus pneumoniae SR26229 clinical isolate based on viable cell reduction at 24 hrs index in vitro pharmacodynamic model; assay type: ADME, organism-based
[44] = tested on: Streptococcus pneumoniae; assay: Maximum antibacterial activity against erythromycin-susceptible Streptococcus pneumoniae SR26229 clinical isolate based on viable cell reduction at 24 hrs index in vitro pharmacodynamic model; assay type: ADME, organism-based
[45] = tested on: Streptococcus pneumoniae; assay: Minimum antibacterial activity against erythromycin-susceptible Streptococcus pneumoniae SR26229 clinical isolate based on viable cell reduction at 24 hrs index in vitro pharmacodynamic model; assay type: ADME, organism-based
[46] = tested on: Streptococcus pneumoniae; assay: Half maximum antibacterial activity against erythromycin-resistant Streptococcus pneumoniae SR26143 clinical isolate expressing mefA gene based on area above the killing curve index in vitro pharmacodynamic model; assay type: ADME, organism-based; details: in vivo
[47] = tested on: Streptococcus pneumoniae; assay: Maximum antibacterial activity against erythromycin-resistant Streptococcus pneumoniae SR26143 clinical isolate expressing mefA gene based on area above the killing curve index in vitro pharmacodynamic model; assay type: ADME, organism-based; details: in vivo
[48] = tested on: Streptococcus pneumoniae; assay: Half maximum antibacterial activity against erythromycin-resistant Streptococcus pneumoniae SR26143 clinical isolate expressing mefA gene based on viable cell reduction at 24 hrs index in vitro pharmacodynamic model; assay type: ADME, organism-based
[49] = tested on: Streptococcus pneumoniae; assay: Maximum antibacterial activity against erythromycin-resistant Streptococcus pneumoniae SR26143 clinical isolate expressing mefA gene based on viable cell reduction at 24 hrs index in vitro pharmacodynamic model; assay type: ADME, organism-based
[50] = tested on: Streptococcus pneumoniae; assay: Minimum antibacterial activity against erythromycin-resistant Streptococcus pneumoniae SR26143 clinical isolate expressing mefA gene based on viable cell reduction at 24 hrs index in vitro pharmacodynamic model; assay type: ADME, organism-based
[51] = tested on: Streptococcus pneumoniae; assay: Half maximum antibacterial activity against erythromycin-resistant Streptococcus pneumoniae SR26132 clinical isolate expressing ermB gene based on area above the killing curve index in vitro pharmacodynamic model; assay type: ADME, organism-based; details: in vivo
[52] = tested on: Streptococcus pneumoniae; assay: Maximum antibacterial activity against erythromycin-resistant Streptococcus pneumoniae SR26132 clinical isolate expressing ermB gene based on area above the killing curve index in vitro pharmacodynamic model; assay type: ADME, organism-based; details: in vivo
[53] = tested on: Streptococcus pneumoniae; assay: Half maximum antibacterial activity against erythromycin-resistant Streptococcus pneumoniae SR26132 clinical isolate expressing ermB gene based on viable cell reduction at 24 hrs index in vitro pharmacodynamic model; assay type: ADME, organism-based
[54] = tested on: Streptococcus pneumoniae; assay: Maximum antibacterial activity against erythromycin-resistant Streptococcus pneumoniae SR26132 clinical isolate expressing ermB gene based on viable cell reduction at 24 hrs index in vitro pharmacodynamic model; assay type: ADME, organism-based
[55] = tested on: Streptococcus pneumoniae; assay: Minimum antibacterial activity against erythromycin-resistant Streptococcus pneumoniae SR26132 clinical isolate expressing ermB gene based on viable cell reduction at 24 hrs index in vitro pharmacodynamic model; assay type: ADME, organism-based
[56] = tested on: Haemophilus influenzae; assay: Antibacterial activity against Haemophilus influenzae SR24169 clinical isolate by broth microdilution method; assay type: functional

CC[C@H]1OC(=O)[C@H](C)C(=O)[C@H](C)[C@@H](O[C@@H]2O[C@H](C)C[C@H](N(C)C)[C@H]2O)[C@@]2(C)C[C@@H](C)/C(=N\C(C)=O)[C@H](C)C(OC/C(=N\OCc3ccc(-n4cccn4)nc3)CO2)[C@]1(C)O (single isomer, unassigned)
MIC [1]: 0.063 µg/mL (≈ 0.0749 µM) | MIC [2]: 0.125 µg/mL (≈ 0.149 µM) | MIC [3]: 0.25 µg/mL (≈ 0.297 µM) | AUC [4]: 8610 ng·h/mL | AUC [5]: 70 ng·h/mL | AUC [6]: 140 ng·h/mL | AUC [7]: 280 ng·h/mL | Cmax [8]: 506 ng/mL | Cmax [9]: 4 ng/mL | Cmax [10]: 8 ng/mL | Cmax [11]: 16 ng/mL | t1/2 [12]: 2.22 h | t1/2 [13]: 17.6 h | t1/2 [14]: 17.6 h | t1/2 [15]: 17.6 h | Ratio [16]: 6.9338 | Ratio [17]: 80.2825 | Ratio [18]: 0 | Ratio [19]: 10.1172 | Ratio [20]: 6.4436 | Ratio [21]: -2.4461 | Ratio [22]: 0.6894 | Ratio [23]: 75.7785 | Ratio [24]: 0 | Ratio [25]: 6.0956 | Ratio [26]: -2.3622 | Ratio [27]: 3.0676 | Ratio [28]: 79.0912 | Ratio [29]: 0 | Ratio [30]: 4.6778 | Ratio [31]: -1.1805 | Ratio [32]: 10.8 | Ratio [33]: 16.3 | Ratio [34]: 22.3 | Ratio [35]: 22 | Ratio [36]: 9.63 | Ratio [37]: 9.01 | Ratio [38]: 15.2 | Ratio [39]: 4.66 | Activity [40]: 9.96 | Activity [41]: 78.23 | Activity [42]: 0 | Activity [43]: 9.35 | Activity [44]: 6.22 | Activity [45]: 2.64 | Activity [46]: 16.64 | Activity [47]: 80.2 | Activity [48]: 15.89 | Activity [49]: 6.12 | Activity [50]: 2.36 | Activity [51]: 8.75 | Activity [52]: 84.15 | Activity [53]: 5.11 | Activity [54]: 5.98 | Activity [55]: -2.14 | MIC [56]: 8 µg/mL (≈ 9.51 µM)
